Measured values from patent US9296704B2, “Substituted pyrimidines as protein kinase inhibitors” (CELGENE AVILOMICS RESEARCH, INC., priority 2007, dated 2016).

What was measured:
[1] = test system: BTK signaling in Ramos cells; assay: BTK Ramos cellular assay (PLCγ2 phosphorylation); type: cell-based; conditions: Homo sapiens; for IC50: Ramos cells, PLCγ2 phosphorylation, read-out: BTK Inhibition
Method: Compounds 1-13 and (I-52) were assayed in Ramos human Burkitt lymphoma cells. Ramos cells were grown in suspension in T225 flasks, spun down, resuspended in 50 mls serum-free media and incubated for 1 hour. Compound was added to Ramos cells in serum free media to a final concentration of 1, 0.1, 0.01, or 0.001 μM. Ramos cells were incubated with compound for 1 hour, washed again and resuspended in 100 ul serum-free media. Cells were then stimulated with 1 μg of goat F(ab′)2 Anti-Human IgM and incubated on ice for 10 minutes to activate B cell receptor signaling pathways. After 10 minutes, the cells were washed once with PBS and then lysed on ice with Invitrogen Cell Extraction buffer. 16 μg total protein from lysates was loaded on gels and blots were probed for phosphorylation of the BTK substrate PLCγ2. […] Additional dose response inhibition of BTK signaling with I-13 is depicted in FIG. 9.

BTK = BTK (Homo sapiens, UniProt Q06187); assay: Omnia assay for potency against BTK; type: biochemical; conditions: read-out: BTK Inhibition
Chain of BTK (Q06187 whole entry): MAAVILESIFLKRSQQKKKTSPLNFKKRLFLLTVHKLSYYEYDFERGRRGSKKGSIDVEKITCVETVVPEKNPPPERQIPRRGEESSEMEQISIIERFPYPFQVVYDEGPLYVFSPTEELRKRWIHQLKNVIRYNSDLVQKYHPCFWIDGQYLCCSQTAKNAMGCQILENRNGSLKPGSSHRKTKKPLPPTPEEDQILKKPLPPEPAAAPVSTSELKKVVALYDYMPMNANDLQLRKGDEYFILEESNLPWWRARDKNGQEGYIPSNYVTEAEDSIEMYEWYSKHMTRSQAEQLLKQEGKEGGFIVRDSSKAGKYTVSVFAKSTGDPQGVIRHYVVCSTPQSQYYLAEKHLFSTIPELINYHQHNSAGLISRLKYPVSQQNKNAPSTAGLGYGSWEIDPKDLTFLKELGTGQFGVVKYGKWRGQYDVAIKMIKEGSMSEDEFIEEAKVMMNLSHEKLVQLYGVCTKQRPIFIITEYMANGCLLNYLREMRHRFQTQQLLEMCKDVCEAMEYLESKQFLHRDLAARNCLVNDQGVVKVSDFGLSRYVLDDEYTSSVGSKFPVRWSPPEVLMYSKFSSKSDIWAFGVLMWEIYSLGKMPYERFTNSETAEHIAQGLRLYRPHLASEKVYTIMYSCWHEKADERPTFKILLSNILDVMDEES
Source text: (§1) The protocol below describes continuous-read kinase assays to measure inherent potency of compounds against active forms of EGFR (WT) and EGFR (T790M/L858R) enzymes. The mechanics of the assay platform are best described by the vendor (Invitrogen, Carlsbad, Calif.) on their website at the following URL: http://www.invitrogen.com/content.cfm?pageid=11338 or http://www.invitrogen.com/site/us/en/home/Products-and-Services/Applications/Drug-Discovery/Target-and-Lead-Identification-and-Validation/KinaseBiology/KB-Misc/Biochemical-Assays/Omnia-Kinase-Assays.html.
(§2) Briefly, 10× stocks of EGFR-WT (PV3872) from Invitrogen and EGFR-T790M/L858R (40350) from BPS Bioscience, San Diego, Calif., 1.13×ATP (AS001A) and appropriate Tyr-Sox conjugated peptide substrates (KCZI001) were prepared in 1× kinase reaction buffer consisting of 20 mM Tris, pH 7.5, 5 mM MgCl2, 1 mM EGTA, 5 mM β-glycerophosphate, 5% glycerol (10× stock, KB002A) and 0.2 mM DTT (DS001A). 5 μL of each enzyme were pre-incubated in a Corning (#3574) 384-well, white, non-binding surface microtiter plate (Corning, NY) for 30 min. at 27° C. with a 0.5 μL volume of 50% DMSO and serially diluted compounds prepared in 50% DMSO. Kinase reactions were started with the addition of 45 μL of the ATP/Tyr-Sox peptide substrate mix and monitored every 30-90 seconds for 60 minutes at λex360/λem485 in a Synergy^4 plate reader from BioTek (Winooski, Vt.). At the conclusion of each assay, progress curves from each well were examined for linear reaction kinetics and fit statistics (R^2, 95% confidence interval, absolute sum of squares). Initial velocity (0 minutes to ˜30 minutes) from each reaction was determined from the slope of a plot of relative fluorescence units vs time (minutes) and then plotted against inhibitor concentration to estimate IC50 from log [Inhibitor] vs Response, Variable Slope model in GraphPad Prism from GraphPad Software (San Diego, Calif.).
The Omnia Assay Protocol for potency assessment against BTK is performed in a substantially similar manner as that described in Example 25 above except that the modified BTK-optimized reagent conditions are: • [BTK]=5 nM, [ATP]=[…], [Y5-Sox]=[…] (ATP KMapp ˜[…]).

ITK = target: T1, ITK (Homo sapiens, UniProt Q08881); assay: Omnia assay for potency against ITK; type: biochemical; conditions: read-out: ITK inhibition
T1 sequence (Q08881 1-620): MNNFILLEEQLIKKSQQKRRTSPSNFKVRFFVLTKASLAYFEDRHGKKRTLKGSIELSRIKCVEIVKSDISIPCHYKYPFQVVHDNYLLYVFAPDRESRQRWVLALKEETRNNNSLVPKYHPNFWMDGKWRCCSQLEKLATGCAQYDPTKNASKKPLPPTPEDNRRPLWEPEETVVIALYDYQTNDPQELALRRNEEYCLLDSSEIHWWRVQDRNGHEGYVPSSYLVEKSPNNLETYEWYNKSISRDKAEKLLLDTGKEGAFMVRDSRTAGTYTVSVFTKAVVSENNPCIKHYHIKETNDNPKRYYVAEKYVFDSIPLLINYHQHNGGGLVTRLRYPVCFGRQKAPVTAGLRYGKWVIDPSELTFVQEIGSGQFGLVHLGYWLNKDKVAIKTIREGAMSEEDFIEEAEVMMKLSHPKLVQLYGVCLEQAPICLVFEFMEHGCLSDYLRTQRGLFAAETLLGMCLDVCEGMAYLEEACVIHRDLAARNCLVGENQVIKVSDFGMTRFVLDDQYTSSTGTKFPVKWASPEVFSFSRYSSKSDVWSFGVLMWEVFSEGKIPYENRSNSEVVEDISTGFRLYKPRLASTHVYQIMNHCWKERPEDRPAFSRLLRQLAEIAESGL
Source text: as §1, §2
This example describes continuous-read kinase assays to measure inherent potency of compound against active forms of ITK enzymes as described in Example 10 above except that the modified ITK-optimized reagent conditions are: • [ITK]=10 nM, [ATP]=25 μM, [Y6-Sox]=10 μM (ATP KMapp=33 μM).

EGFR (WT) = target: T2, EGFR (WT) (Homo sapiens, UniProt P00533); assay: Omnia continuous-read kinase assay, EGFR (WT); type: biochemical; conditions: read-out: EGFR inhibtion
T2 construct: purchased Invitrogen PV3872
T2 sequence (P00533 25-1210): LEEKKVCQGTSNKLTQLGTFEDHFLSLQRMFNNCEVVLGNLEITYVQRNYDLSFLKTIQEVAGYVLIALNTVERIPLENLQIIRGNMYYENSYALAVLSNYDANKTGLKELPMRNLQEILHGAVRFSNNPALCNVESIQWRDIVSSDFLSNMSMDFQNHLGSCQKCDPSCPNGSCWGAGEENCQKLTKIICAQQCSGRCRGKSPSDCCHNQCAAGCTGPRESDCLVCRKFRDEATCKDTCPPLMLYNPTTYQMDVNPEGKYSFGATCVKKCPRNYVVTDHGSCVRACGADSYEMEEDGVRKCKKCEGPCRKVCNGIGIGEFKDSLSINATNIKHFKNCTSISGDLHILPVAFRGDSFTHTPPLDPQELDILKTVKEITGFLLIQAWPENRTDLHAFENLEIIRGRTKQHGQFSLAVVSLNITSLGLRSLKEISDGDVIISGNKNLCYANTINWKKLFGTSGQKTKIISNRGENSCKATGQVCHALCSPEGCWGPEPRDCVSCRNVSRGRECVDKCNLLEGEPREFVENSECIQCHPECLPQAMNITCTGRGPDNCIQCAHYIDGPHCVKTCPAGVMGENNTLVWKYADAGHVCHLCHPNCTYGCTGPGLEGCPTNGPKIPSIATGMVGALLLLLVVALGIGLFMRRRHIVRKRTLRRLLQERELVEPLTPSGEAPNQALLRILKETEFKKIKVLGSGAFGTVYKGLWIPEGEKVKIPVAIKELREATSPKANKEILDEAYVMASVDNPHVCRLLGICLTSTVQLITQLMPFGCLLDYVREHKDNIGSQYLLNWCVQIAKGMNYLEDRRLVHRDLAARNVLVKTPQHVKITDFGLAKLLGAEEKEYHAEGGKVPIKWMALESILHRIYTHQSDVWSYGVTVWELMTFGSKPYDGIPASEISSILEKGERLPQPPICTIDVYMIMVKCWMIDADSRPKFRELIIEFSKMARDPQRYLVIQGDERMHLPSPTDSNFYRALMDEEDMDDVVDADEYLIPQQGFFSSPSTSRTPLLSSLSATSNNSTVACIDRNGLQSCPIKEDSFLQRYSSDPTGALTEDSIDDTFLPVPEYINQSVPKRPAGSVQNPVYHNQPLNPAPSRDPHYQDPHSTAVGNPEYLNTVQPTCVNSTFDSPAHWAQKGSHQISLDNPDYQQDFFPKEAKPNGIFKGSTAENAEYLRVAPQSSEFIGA
Source text: as §1, §2
(§3) The EGFR-WT- and EGFR T790M/L858R-modified optimized reagent conditions are: • [EGFR-WT]=5 nM, [ATP]=[…], [Y12-Sox]=[…]; and [EGFR-T790M/L858R]=3 nM, [ATP]=[…], [Y12-Sox]=[…].

EGFR (T790M/L858R) = target: T3, EGFR (T790M/L858R) (Homo sapiens, UniProt P00533, L858R/T790M); assay: Omnia continuous-read kinase assay, EGFR (T790M/L858R); type: biochemical; conditions: read-out: EGFR (T790M/L858R) inhibiton
T3 construct: purchased BPS Bioscience 40350
T3 sequence (P00533 25-1210 T790M/L858R): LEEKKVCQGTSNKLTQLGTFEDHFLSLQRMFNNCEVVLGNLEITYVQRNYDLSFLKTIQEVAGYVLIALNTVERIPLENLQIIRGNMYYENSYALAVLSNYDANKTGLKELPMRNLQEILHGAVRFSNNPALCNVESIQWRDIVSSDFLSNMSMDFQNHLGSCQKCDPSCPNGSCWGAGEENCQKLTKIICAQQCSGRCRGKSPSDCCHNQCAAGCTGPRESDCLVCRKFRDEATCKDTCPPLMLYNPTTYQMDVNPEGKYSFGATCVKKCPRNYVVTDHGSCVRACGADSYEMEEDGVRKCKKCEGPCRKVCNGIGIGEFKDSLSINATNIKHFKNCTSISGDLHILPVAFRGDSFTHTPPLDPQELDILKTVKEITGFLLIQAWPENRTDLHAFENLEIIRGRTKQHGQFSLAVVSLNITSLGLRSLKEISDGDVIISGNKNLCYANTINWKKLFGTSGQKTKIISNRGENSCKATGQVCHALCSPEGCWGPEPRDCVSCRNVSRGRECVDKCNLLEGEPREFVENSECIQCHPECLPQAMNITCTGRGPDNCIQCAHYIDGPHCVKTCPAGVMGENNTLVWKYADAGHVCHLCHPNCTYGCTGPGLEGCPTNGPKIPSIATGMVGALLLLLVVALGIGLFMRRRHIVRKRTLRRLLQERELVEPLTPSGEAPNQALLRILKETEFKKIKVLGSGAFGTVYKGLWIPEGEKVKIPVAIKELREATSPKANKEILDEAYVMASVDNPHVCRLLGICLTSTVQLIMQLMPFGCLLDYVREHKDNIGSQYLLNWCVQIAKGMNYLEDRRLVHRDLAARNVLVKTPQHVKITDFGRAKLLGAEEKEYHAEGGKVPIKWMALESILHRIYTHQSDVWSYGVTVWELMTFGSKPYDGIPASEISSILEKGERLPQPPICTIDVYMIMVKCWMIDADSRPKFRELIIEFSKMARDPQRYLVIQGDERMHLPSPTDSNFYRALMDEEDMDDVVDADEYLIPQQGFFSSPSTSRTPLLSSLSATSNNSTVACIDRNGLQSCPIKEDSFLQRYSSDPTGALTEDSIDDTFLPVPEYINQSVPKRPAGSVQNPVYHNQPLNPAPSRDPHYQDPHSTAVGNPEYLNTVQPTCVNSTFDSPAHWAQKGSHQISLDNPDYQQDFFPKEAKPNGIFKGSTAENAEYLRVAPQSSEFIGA
Source text: as §1, §2, §3

ErbB1 = ErbB1 (Homo sapiens, UniProt P00533); assay: Z'-LYTE biochemical assay, ErbB1 kinase inhibition; conditions: @ 1 μM
Chain of ErbB1 (P00533 25-1210): as the sequence (P00533 25-1210) above
Method: Compounds of the present invention were assayed as inhibitors of one or more of ErbB1, ErbB2, and/or ErbB4 in a manner substantially similar to the method described by Invitrogen Corp (Invitrogen Corporation, 1600 Faraday Avenue, Carlsbad, Calif., CA; http://www.invitrogen.com/downloads/Z-LYTE_Brochure—1205.pdf) using the Z′-LYTE™ biochemical assay procedure or similar biochemical assay. The Z′-LYTE™ biochemical assay employs a fluorescence-based, coupled-enzyme format and is based on the differential sensitivity of phosphorylated and non-phosphorylated peptides to proteolytic cleavage.

JAK3 = target: T4, JAK3 (Homo sapiens, UniProt P52333); assay: Omnia assay for potency against JAK3; type: biochemical; conditions: read-out: JAK3 Inhibition
T4 sequence (P52333 1-1124): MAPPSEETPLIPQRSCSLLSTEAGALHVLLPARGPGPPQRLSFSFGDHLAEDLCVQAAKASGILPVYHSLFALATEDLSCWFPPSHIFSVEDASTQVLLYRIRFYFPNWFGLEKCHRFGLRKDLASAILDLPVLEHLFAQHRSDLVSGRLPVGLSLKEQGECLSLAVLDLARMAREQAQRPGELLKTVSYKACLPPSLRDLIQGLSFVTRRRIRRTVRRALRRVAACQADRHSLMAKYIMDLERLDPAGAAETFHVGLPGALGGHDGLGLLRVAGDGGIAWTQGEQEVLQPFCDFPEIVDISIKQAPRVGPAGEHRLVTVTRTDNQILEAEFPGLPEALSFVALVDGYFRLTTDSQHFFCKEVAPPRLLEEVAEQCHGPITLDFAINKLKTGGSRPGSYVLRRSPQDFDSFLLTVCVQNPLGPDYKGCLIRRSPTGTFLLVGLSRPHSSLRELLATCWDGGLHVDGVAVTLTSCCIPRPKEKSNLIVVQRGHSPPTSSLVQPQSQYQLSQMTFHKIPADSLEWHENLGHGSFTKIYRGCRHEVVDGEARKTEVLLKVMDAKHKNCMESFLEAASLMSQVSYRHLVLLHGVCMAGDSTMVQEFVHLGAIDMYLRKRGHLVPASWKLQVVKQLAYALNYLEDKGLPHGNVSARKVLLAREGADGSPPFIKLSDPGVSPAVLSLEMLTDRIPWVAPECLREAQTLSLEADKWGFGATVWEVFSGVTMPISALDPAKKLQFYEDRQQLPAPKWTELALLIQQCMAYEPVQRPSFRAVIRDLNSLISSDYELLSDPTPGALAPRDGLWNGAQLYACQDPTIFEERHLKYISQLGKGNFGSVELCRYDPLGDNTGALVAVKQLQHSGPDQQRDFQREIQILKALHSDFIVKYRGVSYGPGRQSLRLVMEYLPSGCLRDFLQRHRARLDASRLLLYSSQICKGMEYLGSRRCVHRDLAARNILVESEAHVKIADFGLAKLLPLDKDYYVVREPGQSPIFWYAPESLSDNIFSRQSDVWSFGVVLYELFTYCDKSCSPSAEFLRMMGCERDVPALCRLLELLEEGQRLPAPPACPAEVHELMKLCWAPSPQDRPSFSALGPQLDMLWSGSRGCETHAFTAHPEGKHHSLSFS
Source text: as §1, §2
The Omnia Assay Protocol for potency assessment against JAK3 is performed in a substantially similar manner as that described in Example 25 above except that the modified JAK3-optimized reagent conditions are: • [JAK3]=5 nM, [ATP]=5 μM, [Y12-Sox]=5 μM (ATP KMapp ˜[…]).

SMILES	IC50 [1] [µM]	IC50 (BTK) [µM]	IC50 (ITK) [µM]	IC50 (EGFR (WT)) [µM]	IC50 (EGFR (T790M/L858R)) [µM]	inhibition at 1 µM (ErbB1) [%]	IC50 (JAK3) [µM]	inhibition at 1 µM ([1]; Ramos, at 1 μM, 1 hour) [%]
C=CC(=O)Nc1cccc(Nc2cc(Oc3cccc(C)c3)ncn2)n1 [I-65)]	≤ 0.01							
CC#CC(=O)c1cccc(Nc2cc(Nc3ccc(Oc4ccccc4)cc3)ncn2)c1 [I-88, 1-(3-(6-(4-phenoxyphenylamino)pyrimidin-4-ylamino)phenyl)but-2-yn-1-one]		≤ 0.01	0.01 to 0.1	≤ 0.01				
C=CC(=O)Nc1cccc(Nc2cc(N3CCc4ccccc43)ncn2)c1 [I-14]		0.1 to 1	1 to 10	≤ 0.01	0.01 to 0.1	96	≤ 0.01	
CC=CC(=O)c1cccc(Nc2cc(Nc3ccc(Oc4ccccc4)cc3)ncn2)c1 (mixture of isomers) [I-89, (E,Z)-1-(3-(6-(4-phenoxyphenylamino)pyrimidin-4-ylamino)phenyl)but-2-en-1-one]		≤ 0.01	0.1 to 1	≤ 0.01				
COc1ccc(NC(=O)/C=C/CN(C)CCCCNC(=O)OC(C)(C)C)cc1Nc1cc(Nc2ccc(F)c(Cl)c2)ncn1 [I-98]		0.1 to 1	≥ 10	≤ 0.01				
C=CC(=O)Nc1cccc(Nc2cc(Oc3ccc(Oc4ccccc4)cc3)ncn2)n1 [I-66)]	≤ 0.01							
C=CC(=O)Nc1cc(Nc2cc(Oc3ccc(Oc4ccccc4)cc3)ncn2)ccc1N1CCOCC1 [I-101, N-(2-morpholino-5-(6-(4-phenoxyphenoxy)pyrimidin-4-ylamino)phenyl)acrylamide]		≤ 0.01	0.1 to 1	≤ 0.01				
C=CC(=O)Nc1cc(Nc2cc(Oc3ccc(Oc4ccccc4)cc3)ncn2)cc(C(=O)N2CCOCC2)c1 [I-100, N-(3-(morpholine-4-carbonyl)-5-(6-(4-phenoxy)pyrimidin-4-ylamino)phenyl)acrylamide]	0.01 to 0.1	≤ 0.01	≥ 10	≤ 0.01				
C=CC(=O)Nc1cccc(Nc2cc(Oc3cccc(OC)c3)ncn2)n1 [I-90, N-(6-(6-(3-methoxyphenoxy)pyrimidin-4-ylamino)pyridine-2-yl)acrylamide]		≤ 0.01	0.1 to 1	≤ 0.01				
C=CS(=O)(=O)Nc1cccc(Nc2cc(Oc3cccc(C(F)(F)F)c3)ncn2)c1 [I-10]		0.1 to 1	≥ 10	≤ 0.01	0.1 to 1	96	0.1 to 1	
COc1ccc(NC(=O)/C=C/CN(C)CCCCNC(=O)CCCC(=O)NCCCOCCOCCOCCCNC(=O)CCCC[C@@H]2SC[C@@H]3NC(=O)N[C@@H]32)cc1Nc1cc(Nc2ccc(F)c(Cl)c2)ncn1 [I-99, N^1-(4-(((E)-4-(3-(6-(3-chloro-4-fluorophenylamino)pyrimidin-4-ylamino)-4-methoxyphenylamino)-4-oxobut-2-enyl)(methyl)amino)butyl)-N^5-(15-oxo-19-((3aS,4S,6aR)-2-oxohexahydro-1H-thieno[3,4-d]imidazol-4-yl)-4,7,10-trioxa-14-azanonadecyl)glutaramide]	≤ 0.01	≤ 0.01		≤ 0.01				
C=CC(=O)Nc1cccc(Nc2cc(N(C)c3ccccc3)ncn2)c1 [I-15, N-{3-[6-(N-methyl-N-phenylamino)-pyrimidin-4-ylamino]phenyl}-2 propenamide]		0.01 to 0.1	1 to 10	≤ 0.01	0.01 to 0.1	98	0.01 to 0.1	
CN(C)C/C=C/C(=O)Nc1cccc(Nc2cc(Nc3ccc(F)c(Cl)c3)ncn2)n1 [I-52]		≤ 0.01		≤ 0.01			≤ 0.01	50
